Reference: patent US20230158151A1 (NURIX THERAPEUTICS, INC., priority 2021, published 2023)
Where two headings read alike, the source gives them in different places.

Key:
[1] = biological target: T1, ITK (Homo sapiens, UniProt Q08881); assay: ITK Degradation HiBiT Assay; type: cell-based
T1 construct: Compounds provided herein were assayed in vitro with ITK HiBit cell lines; endogenous in cells; host or cells: Molt4 (ATCC CRL-1552 [sic]), monoclonal clone 1C10
T1 sequence (Q08881 1-620): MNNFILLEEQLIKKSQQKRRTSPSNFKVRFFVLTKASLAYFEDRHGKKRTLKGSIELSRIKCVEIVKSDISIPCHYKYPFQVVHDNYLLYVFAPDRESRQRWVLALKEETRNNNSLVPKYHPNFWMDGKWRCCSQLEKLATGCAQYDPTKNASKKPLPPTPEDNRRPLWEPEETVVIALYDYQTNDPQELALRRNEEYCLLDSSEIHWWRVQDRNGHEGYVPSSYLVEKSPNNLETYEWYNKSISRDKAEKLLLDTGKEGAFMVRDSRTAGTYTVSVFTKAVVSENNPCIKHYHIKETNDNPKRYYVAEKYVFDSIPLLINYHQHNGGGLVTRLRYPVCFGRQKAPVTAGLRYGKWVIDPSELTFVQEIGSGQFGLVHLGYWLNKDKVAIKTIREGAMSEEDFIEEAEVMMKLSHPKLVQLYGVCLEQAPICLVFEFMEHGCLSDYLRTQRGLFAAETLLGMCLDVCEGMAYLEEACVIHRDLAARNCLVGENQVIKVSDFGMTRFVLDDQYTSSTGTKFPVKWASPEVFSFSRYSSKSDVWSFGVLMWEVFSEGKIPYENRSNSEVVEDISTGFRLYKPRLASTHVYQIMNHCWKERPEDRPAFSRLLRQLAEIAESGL
Procedure: Compounds provided herein were assayed in vitro with ITK HiBit cell lines. Compound dilution series (11-point, 5 fold dilutions in DMSO, columns 2-12 with replicate in rows A/B, C/D, E/F, G, H at 2000× the final required concentrations were prepared in 96 well plate (Falcon, cat. no. 353077). Column 1, rows A-H were control DMSO. The 2000× solutions ranged from 2 mM to 1.024 nM (final assay concentration range 1 μM to […]). The 2000× solutions were added to cells in […], for a final DMSO concentration of 0.5% and final assay compound concentration of 1×. For the cells, C-terminal HiBiT-tagged Molt4 cells (ATCC CRL-1552, monoclonal cell line clone 1C10) were plated at 1×10^6 cells/mL, 100 μL/well ([…]) in complete RPMI (10% FBS, 1% L-glutamine). The cells were incubated with compound 32 and compound 30 for 4 hrs at 32° C./6% CO2.
Following incubation, 100 μL of complete Nano-Glo HiBiT Lytic Detection Reagent (Nano-Glo HiBiT Lytic Buffer with 1:50 Nano-Glo HiBiT Lytic Substrate and 1:100 LgBiT Protein; Promega cat. no. N3O40) was added. Cells were further incubated for 10 min at room temperature (RT). Luminescence units (LU) were read on an EnVision plate reader (Perkin Elmer, 0.1 sec per well). Percent ITK remaining per sample was calculated as follows: […]
Using Graphpad Prism, % ITK remaining values were plotted as a function of compound concentration. To determine DC50 and Dmax values, resulting curves were fit to the Prism curve-fitting equation “log(inhibitor) vs response−Variable slope (four parameters)” (reported best fit value IC50 used as DC50). ITK was measured with antibody-based MSD (Meso-Scale Discovery) assays shown below.

[2] = Mouse PK Analysis (plasma LC/MS/MS, noncompartmental PK parameters); type: in vivo; set-up: AUC(0-t): concentration or dose not given beside the values; settings: mouse; mice, oral administration, plasma
Procedure: Compounds 30 and 29 were administered to mice orally. After 6 hours or 24 hours, splenocytes cells were harvested. ITK was evaluated by Western blotting. Plasma concentrations were determined by LC/MS/MS. Plasma samples were protein precipitated by addition of 100 μl of acetonitrile containing 50 ng/ml of internal standard. The resulting mixture was vortexed and centrifuged at 4000 RPM for 5 minutes. An aliquot of the resultant supernatant (75 μl) was added to 75 μl of 0.1% formic acid in water to constitute the final sample for injection. Samples were injected on a Shimadzu Exion LC Binary Gradient AD Pump HLPC system connected to a Sciex QTRAP 6500+ mass spectrometer. Five μl of sample was injected onto a Waters Acquity UPLC BEH C18 column 130A (2.1×30 mm, […]) at 40° C. utilizing a flow rate of 700 μl/minute. Mobile Phase A was 0.1% formic acid in water and mobile phase B was 0.1% formic acid in acetonitrile. A linear gradient of 15-95% B over 1.0 minute was used. The mass spectrometer was operated in positive ion electrospray mode with multiple reaction monitoring for maximum sensitivity. Sciex Analyst software (version 1.6.3) was used for LC/MS/MS instrument control and acquisition. Compound concentration was determined against a standard curve of internal standard versus compound peak area ratio. Noncompartmental PK parameters were determined using Phoenix 32 software (version 8.2.0.4383) from Certara. Plasma concentrations from the LC/MS/MS analyses, dose, route of administration, and desired units were utilized for PK parameter calculations. […] FIG. 3C provides the concentration over time of compound 30 following in vivo oral administration in the 6 hour and 24 hour assays.
Cmax, Tmax and AUClast were all calculated using a WinNonLin Phoenix 64 v 8.2.0.4383. Using non-compartmental analysis, Tmax, Cmax and AUClast were determined as follows:
Tmax—Time of maximum observed concentration. Cmax—Maximum observed concentration, occurring at time Tmax, as defined above. AUClast—Area under the curve from the time of dosing to the time of the last measurable (positive) concentration (Tlast).

[3] = MOLT-4, C-terminal HiBiT-tagged Molt4 cells, 4 hrs incubation, read-out: HiBiT DMax (%)
[4] = C-terminal HiBiT-tagged Molt4 cells, 4 hrs incubation

Dmax [1, 3] [%] | AUC(0-t) [2] [µM·h] | Cmax [2] [nM] | Tmax [2] [h] | DC50 [1, 4] [nM] | Dmax ([1]; ITK degradation in HiBiT cell line, FIG. 1, read-out: Dmax values (FIG. 1)) [%] | Structure (SMILES)
85 | – | – | – | – | – | C[C@@]12Cc3[nH]nc(C(=O)Nc4cnn(CC5CN(C(=O)C6CN(c7ccc(C8CCC(=O)NC8=O)cn7)C6)C5)c4)c3C[C@@H]1C2(F)F (stereo partly drawn) [Compound 23, (4aS,5aR)—N-(1-((1-(1-(5-(2,6-dioxopiperidin-3-yl)pyridin-2-yl)azetidine-3-carbonyl)azetidin-3-yl)methyl)-1H-pyrazol-4-yl)-5,5-difluoro-5a-methyl-1,4,4a,5,5a,6-hexahydrocyclopropa[f]indazole-3-carboxamide]
84 | 16.5 | 3080 | 2 | – | – | C[C@@H](C(=O)N(C)c1ccc2cc(-c3n[nH]c4c3CCC(C)(C)C4)[nH]c2c1)N1CCN(CC2CCN(c3ccc(N4CCC(=O)NC4=O)cn3)CC2)CC1 [Compound 31, (S)—N-(2-(6,6-dimethyl-4,5,6,7-tetrahydro-1H-indazol-3-yl)-1H-indol-6-yl)-2-(4-((1-(5-(2,4-dioxotetrahydropyrimidin-1(2H)-yl)pyridin-2-yl)piperidin-4-yl)methyl)piperazin-1-yl)-N-methylpropanamide]
82 | 3.9 | 300 | 6 | 0.09 | – | CC1(C)CCc2c(-c3cc4ccc(C(=O)N5CCC(CN6CCC(c7ccc(C8CCC(=O)NC8=O)cc7)CC6)CC5)cc4[nH]3)n[nH]c2C1 (stereo not shown) [Compound 39, 3-(4-(1-((1-(2-(6,6-dimethyl-4,5,6,7-tetrahydro-1H-indazol-3-yl)-1H-indole-6-carbonyl)piperidin-4-yl)methyl)piperidin-4-yl)phenyl)piperidine-2,6-dione]
82 | 7.07 | 2430 | 1 | – | – | CN(C(=O)CCC1CCN(c2ccc(C3CCC(=O)NC3=O)cn2)CC1)c1ccc2cc(-c3n[nH]c4c3C[C@@H]3C(F)(F)[C@]3(C)C4)[nH]c2c1 (stereo partly drawn) [Compound 4, N-(2-((4aS,5aR)-5,5-difluoro-5a-methyl-1,4,4a,5,5a,6-hexahydrocyclopropa[f]indazol-3-yl)-1H-indol-6-yl)-3-(1-(5-(2,6-dioxopiperidin-3-yl)pyridin-2-yl)piperidin-4-yl)-N-methylpropanamide]
85 | – | – | – | – | – | CN(C(=O)CC1CCN(CC2CCN(c3ccc(C4CCC(=O)NC4=O)cn3)CC2)CC1)c1ccc2cc(-c3n[nH]c4c3C[C@@H]3C(F)(F)[C@]3(C)C4)[nH]c2c1 (stereo partly drawn) [Compound 6, N-(2-((4aS,5aR)-5,5-difluoro-5a-methyl-1,4,4a,5,5a,6-hexahydrocyclopropa[f]indazol-3-yl)-1H-indol-6-yl)-2-(1-((1-(5-(2,6-dioxopiperidin-3-yl)pyridin-2-yl)piperidin-4-yl)methyl)piperidin-4-yl)-N-methylacetamide]
89 | 22.7 | 1620 | 6 | – | 90 to 100 | C[C@@H](C(=O)N(C)c1ccc2cc(-c3n[nH]c4c3CCC(C)(C)C4)[nH]c2c1)N1CCN(CC2CCN(c3ccc(C4CCC(=O)NC4=O)cn3)CC2)CC1 (stereo partly drawn) [Compound 32, (2S)—N-(2-(6,6-dimethyl-4,5,6,7-tetrahydro-1H-indazol-3-yl)-1H-indol-6-yl)-2-(4-((1-(5-(2,6-dioxopiperidin-3-yl)pyridin-2-yl)piperidin-4-yl)methyl)piperazin-1-yl)-N-methylpropanamide]
76 | 1.98 | 694 | 3.3 | – | – | C[C@@H](C(=O)N(C)c1ccc2cc(-c3n[nH]c4c3C[C@@H]3C(F)(F)[C@]3(C)C4)[nH]c2c1)N1CCN(CC2CCN(c3ccc(N4CCC(=O)NC4=O)cn3)CC2)CC1 [Compound 29, (S)—N-(2-((4aS,5aR)-5,5-difluoro-5a-methyl-1,4,4a,5,5a,6-hexahydrocyclopropa[f]indazol-3-yl)-1H-indol-6-yl)-2-(4-((1-(5-(2,4-dioxotetrahydropyrimidin-1(2H)-yl)pyridin-2-yl)piperidin-4-yl)methyl)piperazin-1-yl)-N-methylpropanamide]
86 | 12 | 2000 | 2 | < 0.01 | – | CC1(C)CCc2c(-c3cc4ccc(C(=O)N5CCC(CN6CCN(c7ccc(C8CCC(=O)NC8=O)nc7)CC6)CC5)cc4[nH]3)n[nH]c2C1 (stereo not shown) [Compound 35, 3-(5-(4-((1-(2-(6,6-dimethyl-4,5,6,7-tetrahydro-1H-indazol-3-yl)-1H-indole-6-carbonyl)piperidin-4-yl)methyl)piperazin-1-yl)pyridin-2-yl)piperidine-2,6-dione]
79 | 72 | 5400 | 2 | 2.6 | – | CC1(C)CCc2c(-c3cc4ccc(C(=O)N5CCC(CN6CCN(c7ccc(C8CCC(=O)NC8=O)cc7)CC6)CC5)cc4[nH]3)n[nH]c2C1 (stereo not shown) [Compound 37, 3-(4-(4-((1-(2-(6,6-dimethyl-4,5,6,7-tetrahydro-1H-indazol-3-yl)-1H-indole-6-carbonyl)piperidin-4-yl)methyl)piperazin-1-yl)phenyl)piperidine-2,6-dione]
92 | 1.43 | 610 | 6 | 0.6 | – | CC1(C)CCc2c(-c3cc4ccc(N5CCC6(CCN(CC7CCN(c8ccc(C9CCC(=O)NC9=O)cn8)CC7)CC6)C5=O)cc4[nH]3)n[nH]c2C1 (stereo not shown) [Compound 24, 3-(6-(4-((2-(2-(6,6-dimethyl-4,5,6,7-tetrahydro-1H-indazol-3-yl)-1H-indol-6-yl)-1-oxo-2,8-diazaspiro[4.5]decan-8-yl)methyl)piperidin-1-yl)pyridin-3-yl)piperidine-2,6-dione]
90 | – | – | – | – | – | C[C@@]12Cc3[nH]nc(C(=O)Nc4cnn(CC5CN(C(=O)C6CCN(c7ccc(C8CCC(=O)NC8=O)cn7)CC6)C5)c4)c3C[C@@H]1C2(F)F (stereo partly drawn) [Compound 22, (4aS,5aR)—N-(1-((1-(1-(5-(2,6-dioxopiperidin-3-yl)pyridin-2-yl)piperidine-4-carbonyl)azetidin-3-yl)methyl)-1H-pyrazol-4-yl)-5,5-difluoro-5a-methyl-1,4,4a,5,5a,6-hexahydrocyclopropa[f]indazole-3-carboxamide]
